Settings: 0.1% solution, PBS, 37° C.

Cc1cc2c(s1)Nc1ccccc1N=C2N1CCN(C)CC1 [Olanzapine, 2-methyl-4-(4-methyl-1-piperazinyl)-10H-thieno[2,3-b][1,5]benzodiazepine]
time for which olanzapine was stable: ≥ 14 days

— US8617607B2, “Sustained release formulations of psychoactive drugs” (TYRX, Inc., priority 2008, dated 2013)
